{
  "source": "patent US11780827B2",
  "about": "“Substituted 3-phenoxyazetidin-1-yl-pyrazines” (Boehringer Ingelheim International GmbH, priority 2020, dated 2023)",
  "key": {"aldehyde oxidase [1]": {"target": "T1, aldehyde oxidase (Homo sapiens, UniProt Q06278)", "T1 construct": "endogenous in cells; host or cells: cryopreserved primary human hepatocytes", "T1 sequence (Q06278 1-1338)": "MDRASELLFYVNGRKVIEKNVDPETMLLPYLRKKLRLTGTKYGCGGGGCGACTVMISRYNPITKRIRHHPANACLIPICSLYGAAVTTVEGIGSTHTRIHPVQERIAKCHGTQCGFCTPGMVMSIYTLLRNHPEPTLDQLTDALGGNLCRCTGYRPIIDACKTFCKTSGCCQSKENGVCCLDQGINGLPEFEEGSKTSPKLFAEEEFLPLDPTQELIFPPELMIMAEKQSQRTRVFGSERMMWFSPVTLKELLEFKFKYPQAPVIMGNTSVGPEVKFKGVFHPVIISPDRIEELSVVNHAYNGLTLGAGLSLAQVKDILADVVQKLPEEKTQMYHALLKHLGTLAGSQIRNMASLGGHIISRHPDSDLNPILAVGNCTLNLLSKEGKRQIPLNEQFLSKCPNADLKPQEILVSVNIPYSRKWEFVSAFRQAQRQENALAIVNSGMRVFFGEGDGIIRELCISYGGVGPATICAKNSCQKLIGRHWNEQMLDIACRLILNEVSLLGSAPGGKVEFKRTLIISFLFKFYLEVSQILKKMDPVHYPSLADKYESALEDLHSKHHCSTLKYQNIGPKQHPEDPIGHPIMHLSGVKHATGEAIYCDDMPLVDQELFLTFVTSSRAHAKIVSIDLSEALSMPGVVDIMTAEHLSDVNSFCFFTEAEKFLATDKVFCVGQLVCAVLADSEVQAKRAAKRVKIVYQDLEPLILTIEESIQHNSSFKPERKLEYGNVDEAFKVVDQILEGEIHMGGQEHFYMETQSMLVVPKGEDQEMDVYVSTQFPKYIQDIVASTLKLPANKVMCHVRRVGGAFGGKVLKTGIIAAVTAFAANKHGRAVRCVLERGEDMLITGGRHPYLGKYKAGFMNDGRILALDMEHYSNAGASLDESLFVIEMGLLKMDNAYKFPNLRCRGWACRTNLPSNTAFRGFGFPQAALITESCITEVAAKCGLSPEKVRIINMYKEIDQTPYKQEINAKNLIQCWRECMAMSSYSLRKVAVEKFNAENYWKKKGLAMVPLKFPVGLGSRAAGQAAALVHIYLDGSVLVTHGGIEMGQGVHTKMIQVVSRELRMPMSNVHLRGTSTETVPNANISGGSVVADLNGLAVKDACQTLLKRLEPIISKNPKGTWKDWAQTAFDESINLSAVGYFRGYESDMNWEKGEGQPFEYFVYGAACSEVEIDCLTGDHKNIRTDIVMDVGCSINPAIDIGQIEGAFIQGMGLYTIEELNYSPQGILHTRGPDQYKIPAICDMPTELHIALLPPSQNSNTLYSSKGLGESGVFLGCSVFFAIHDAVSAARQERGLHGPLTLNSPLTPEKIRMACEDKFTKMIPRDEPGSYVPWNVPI", "assay": "Metabolite formation in pooled human liver cytosol incubations without cofactors", "format": "in vitro ADME", "parameters": "key: yes: Metabolite is formed in presence of human liver cytosol in the absence of cofactors as indication of aldehyde oxidase mediated metabolism; Metabolite is not detected in cytosol incubations", "details": "human liver cytosol 5 mg/ml, 10 μM test compound, 60 min, metabolite of the same line", "description": "(§1) In vitro metabolite profiling to evaluate the involvement of aldehyde oxidase in addition to CYP-mediated metabolic pathways is based on the semiquantitative analysis of the formation of oxygenated metabolites in primary human hepatocytes and the reduction in their formation in presence of the specific aldehyde oxidase inhibitor hydralazine. If respective hydralazine-inhibitable metabolites are also formed in human liver cytosol incubations in the absence of any cofactors, involvement of aldehyde oxidase in the metabolism of the respective compound is considered likely.\nThe involvement of aldehyde oxidase in the metabolic transformation of the test compound is confirmed at 37° C. with pooled human liver cytosol fractions. The incubations, conducted at a final incubation volume of 60 μl per time point, are composed of phosphate buffer (100 mM, pH 7.4), magnesium chloride (5 mM), and human liver cytosol (5 mg/ml). Following a short preincubation period at 37° C., the reactions are initiated by addition of the test compound, resulting in a final concentration of 10 μM. After 0 and 60 minutes, the incubations are terminated by transferring an aliquot into organic solvent, followed by centrifugation (10000 g, 5 min). The resulting supernatant is used for bioanalysis by liquid chromatography-high resolution mass spectrometry for identification of putative metabolites."}, "human GPR52": {"target": "T2, human GPR52 (Homo sapiens, UniProt Q9Y2T5)", "T2 construct": "expressed in transfected cells; host or cells: CHO-K1", "T2 sequence (Q9Y2T5 whole entry)": "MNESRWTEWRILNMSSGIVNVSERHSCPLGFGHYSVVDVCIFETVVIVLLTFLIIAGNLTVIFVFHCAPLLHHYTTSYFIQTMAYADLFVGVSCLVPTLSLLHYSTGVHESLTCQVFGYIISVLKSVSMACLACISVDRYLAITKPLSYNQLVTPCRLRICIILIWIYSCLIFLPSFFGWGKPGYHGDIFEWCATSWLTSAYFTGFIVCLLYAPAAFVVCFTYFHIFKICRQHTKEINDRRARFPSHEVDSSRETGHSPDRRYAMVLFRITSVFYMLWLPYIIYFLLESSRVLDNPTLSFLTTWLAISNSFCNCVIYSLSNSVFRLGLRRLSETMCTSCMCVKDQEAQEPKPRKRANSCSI", "assay": "HTRF assay for direct cAMP measurement", "format": "cell-based", "details": "CHO-K1 cells stably expressing recombinant human GPR52, mean EC50", "description": "Homogeneous Time-Resolved Fluorescence (HTRF) Assay for Direct cAMP Measurement.\nHTRF cAMP assays were performed using commercially available assay kits according to the manufacturer's instructions (cAMP Dynamic 2 Assay Kit; #62AM4PEJ, Cisbio Bioassays, Bedford, Mass.). An aliquot of CHO-K1 cells stably expressing recombinant human GPR52 is thawed and resuspended in cell buffer (1×PBS (w/o Ca^2+/Mg^2+)) at a density of 4×10^5 cells per mL Test compounds were solubilized in DMSO to 10 mM stock solutions and serially diluted in DMSO using 6-fold dilutions to generate 8-point dose response curves. These serially diluted samples were then diluted 1:50 in compound dilution buffer (1×PBS (w/o Ca^2+/Mg^2+) containing 0.5 mM IBMX, 0.1% BSA) to achieve a 4× stock. The diluted compounds were transferred (5 μL per well) in duplicate to the 384-well assay plate (Optiplate #6007290, PerkinElmer, Waltham, Mass.). Both a positive (reference compound) and negative (non-stimulated vehicle) control are included in each assay run in column 23. The cell suspension was subsequently dispensed into the 384-well assay plates at 15 μL per well (6000 cells) such that the compound was diluted to 1×. […] After a one-hour incubation at room temperature, 10 μL of cAMP D2 reagent followed by 10 μL of cryptate reagent (provided in the Cisbio kit) was added to each well. Plates were then incubated at room temperature for one hour prior to reading. Time-resolved fluorescence measurements were collected on an EnVision® HTRF plate reader (PerkinElmer, Waltham, Mass.). Counts from the plate reader were fit to the cAMP standard curve included on each plate to determine the amount of cAMP in each test well. The % control was calculated based on the positive control set at […]. Dose-response curves were generated from the cAMP data and analyzed using a nonlinear least squares curve-fitting program to obtain EC50 values."}, "aldehyde oxidase [2]": {"target": "T1, aldehyde oxidase", "assay": "In vitro metabolite profiling in primary human hepatocytes with or without hydralazine", "format": "in vitro ADME", "details": "for % Parent of drug-related material: 1 μM test compound; for Contribution of AO to oxidative metabolism: sum of AO-formed metabolites", "description": "as §1\nThe involvement of aldehyde oxidase in metabolic transformation of the test compound is investigated using primary human hepatocytes in suspension in presence or absence of the specific aldehyde oxidase inhibitor hydralazine. After recovery from cryopreservation, human hepatocytes are incubated in Dulbecco's modified eagle medium supplemented with 3.5 μg glucagon/500 ml, 2.5 mg insulin/500 ml and 3.75 mg/500 ml hydrocortisone) containing 5% human serum.\nFollowing a 30 min preincubation in a cell culture incubator (37° C., 10% CO2) with or without 50 μM hydralazine, test compound solution is spiked into the hepatocyte suspension to obtain a final cell density of 1.0*10^6 to 4.0*10^6 cells/mi (depending on the metabolic turnover rate of the compound observed with primary human hepatocytes), a final test compound concentration of 1 μM, and a final DMSO concentration of 0.05%.\nThe cells are incubated for six hours (incubator, horizontal shaker) and samples are removed from the incubation after 0, 0.5, 1, 2, 4 or 6 hours, depending on the metabolic turnover rate. Samples are quenched with acetonitrile and pelleted by centrifugation. The supernatant is transferred to a 96-deepwell plate, evaporated under nitrogen and resuspended prior to bioanalysis by liquid chromatography-high resolution mass spectrometry for identification of putative metabolites."}},
  "note": "pEC50: −log10 of the molar value.",
  "data": [
    {"smiles": "Cc1cc(NC(=O)c2nccnc2N2CC(Oc3cc(F)c(F)c(Cl)c3)C2)cnn1", "note": "[Example 14]", "values": [
      {"measurement": "Formation in human liver cytosol incubations [yes/no]", "setting": "aldehyde oxidase [1]", "value": "yes"},
      {"measurement": "pEC50", "setting": "human GPR52", "value": 8.40},
      {"measurement": "% Parent of drug-related material", "setting": "aldehyde oxidase [2]", "value": 94, "unit": "%"},
      {"measurement": "Contribution of AO to oxidative metabolism", "setting": "aldehyde oxidase [2]", "value": 22, "unit": "%"}
    ]},
    {"smiles": "O=C(Nc1ccnnc1)c1nccnc1N1CC(Oc2cc(F)c(F)c(F)c2)C1", "note": "[Example 4]", "values": [
      {"measurement": "Formation in human liver cytosol incubations [yes/no]", "setting": "aldehyde oxidase [1]", "value": "yes"},
      {"measurement": "pEC50", "setting": "human GPR52", "value": 8.30},
      {"measurement": "% Parent of drug-related material", "setting": "aldehyde oxidase [2]", "value": 94, "unit": "%"},
      {"measurement": "Contribution of AO to oxidative metabolism", "setting": "aldehyde oxidase [2]", "value": 53, "unit": "%"}
    ]},
    {"smiles": "Cc1cc(NC(=O)c2nccnc2N2CC(Oc3cc(F)cc(Cl)c3)C2)cnn1", "note": "[Example 10]", "values": [
      {"measurement": "Formation in human liver cytosol incubations [yes/no]", "setting": "aldehyde oxidase [1]", "value": "yes"},
      {"measurement": "pEC50", "setting": "human GPR52", "value": 8.40},
      {"measurement": "% Parent of drug-related material", "setting": "aldehyde oxidase [2]", "value": 91, "unit": "%"},
      {"measurement": "Contribution of AO to oxidative metabolism", "setting": "aldehyde oxidase [2]", "value": 22, "unit": "%"}
    ]},
    {"smiles": "Cc1cc(NC(=O)c2nccnc2N2CC(Oc3cc(F)cc(C(F)F)c3)C2)cnn1", "note": "[Example 11]", "values": [
      {"measurement": "Formation in human liver cytosol incubations [yes/no]", "setting": "aldehyde oxidase [1]", "value": "yes"},
      {"measurement": "pEC50", "setting": "human GPR52", "value": 8.22},
      {"measurement": "% Parent of drug-related material", "setting": "aldehyde oxidase [2]", "value": 86, "unit": "%"},
      {"measurement": "Contribution of AO to oxidative metabolism", "setting": "aldehyde oxidase [2]", "value": 28, "unit": "%"}
    ]},
    {"smiles": "Cc1cc(NC(=O)c2nccnc2N2CC(Oc3cc(F)cc(F)c3)C2)cnn1", "note": "[Example 13]", "values": [
      {"measurement": "Formation in human liver cytosol incubations [yes/no]", "setting": "aldehyde oxidase [1]", "value": "yes"},
      {"measurement": "pEC50", "setting": "human GPR52", "value": 8.05},
      {"measurement": "% Parent of drug-related material", "setting": "aldehyde oxidase [2]", "value": 15, "unit": "%"},
      {"measurement": "Contribution of AO to oxidative metabolism", "setting": "aldehyde oxidase [2]", "value": 15, "unit": "%"}
    ]},
    {"smiles": "CCc1cc(NC(=O)c2nccnc2N2CC(Oc3ccc(F)c(F)c3)C2)cnn1", "note": "[Example 21]", "values": [
      {"measurement": "Formation in human liver cytosol incubations [yes/no]", "setting": "aldehyde oxidase [1]", "value": "yes"},
      {"measurement": "pEC50", "setting": "human GPR52", "value": 8.70},
      {"measurement": "% Parent of drug-related material", "setting": "aldehyde oxidase [2]", "value": 80, "unit": "%"},
      {"measurement": "Contribution of AO to oxidative metabolism", "setting": "aldehyde oxidase [2]", "value": 67, "unit": "%"}
    ]},
    {"smiles": "Cc1cc(NC(=O)c2nccnc2N2CC(Oc3ccc(F)c(F)c3)C2)cnn1", "note": "[Example 12]", "values": [
      {"measurement": "Formation in human liver cytosol incubations [yes/no]", "setting": "aldehyde oxidase [1]", "value": "yes"},
      {"measurement": "pEC50", "setting": "human GPR52", "value": 8.52},
      {"measurement": "% Parent of drug-related material", "setting": "aldehyde oxidase [2]", "value": 93, "unit": "%"},
      {"measurement": "Contribution of AO to oxidative metabolism", "setting": "aldehyde oxidase [2]", "value": 56, "unit": "%"}
    ]},
    {"smiles": "Cc1cc(NC(=O)c2nccnc2N2CC(Oc3ccc(F)c(F)c3)C2)ncn1", "note": "[Example 29]", "values": [
      {"measurement": "Formation in human liver cytosol incubations [yes/no]", "setting": "aldehyde oxidase [1]", "value": "yes"},
      {"measurement": "pEC50", "setting": "human GPR52", "value": 8.30},
      {"measurement": "% Parent of drug-related material", "setting": "aldehyde oxidase [2]", "value": 96, "unit": "%"},
      {"measurement": "Contribution of AO to oxidative metabolism", "setting": "aldehyde oxidase [2]", "value": 36, "unit": "%"}
    ]}
  ]
}
